The values that follow come from ChEMBL document CHEMBL1201862, “PubChem BioAssay data set” (2004).

Test systems include 786-0; A549; EKVX; HCC 2998; HOP-92; Hs-578T; IGROV-1; MOLT-4; NCI-H23; NCI-H460; OVCAR-3; OVCAR-4; OVCAR-8; PC-3; SF-539; SNB-19; SNB-75; SW-620; U-251; UACC-62.
What all share (assay): inhibition of tumour cell growth, NCI panel, 48 h

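Following 48 hours of exposure in 96-well plates, responses at five concentrations were used to interpolate endpoints linearly. GI50 = concentration required for 50% inhibition of growth.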 Calls of active or inactive are those of the source. Cut-off read from the data, not from the text of the source: active = GI50 up to about 1.1 µM and inactive = higher.

Turning to `COC(=O)/C(=N\NC(N)=O)C(C(=O)C(=O)Nc1ccccc1OC)c1nc2ccc([N+](=O)[O-])cc2nc1O` (centres undefined), the GI50 with 786-0 is > 100 µM (inactive); in the test on A549, > 100 µM (inactive); in the test on EKVX, > 100 µM (inactive); with HCC 2998 it was > 100 µM (inactive); in the test on HOP-92, > 100 µM (inactive); in the test on Hs-578T it was 82.2 µM (inactive). The GI50 with IGROV-1 is 53.1 µM (inactive); in the test on MOLT-4, > 10 µM (inactive); with NCI-H23, > 100 µM (inactive); in the test with NCI-H460, > 100 µM (inactive); with OVCAR-3, > 100 µM (inactive); in the test on OVCAR-4, 53 µM (inactive). The GI50 with OVCAR-8, in the test on PC-3, with SF-539, in the test with SNB-19, with SNB-75 and with SW-620 was > 100 µM (inactive) each time. In addition, the GI50 in the test on U-251 and with UACC-62 was > 100 µM (inactive) in each case.
As to `CCOc1ccccc1/N=N/C1C(=O)N(C(=O)CC(=O)Nc2ccccc2Cl)N=C1C` (centres undefined), the GI50 with 786-0 is > 100 µM (inactive); in the test with A549 it was > 100 µM (inactive); with EKVX, 3.86 µM (inactive); with HCC 2998, > 100 µM (inactive); in the test with HOP-92 it was 20.3 µM (inactive); in the test with Hs-578T it was 22.4 µM (inactive). For the same compound, the GI50 is 64.6 µM (inactive) in the test with IGROV-1; > 100 µM (inactive) in the test on MOLT-4; > 100 µM (inactive) in the test with NCI-H23; 40.2 µM (inactive) in the test with NCI-H460; 55.3 µM (inactive) in the test with OVCAR-3; 71 µM (inactive) in the test on OVCAR-4. Besides, the GI50 in the test with OVCAR-8 is 88.3 µM (inactive); with PC-3, 94.4 µM (inactive); in the test on SF-539 it was > 100 µM (inactive); in the test with SNB-75, 42.2 µM (inactive); with SW-620, > 100 µM (inactive); in the test with U-251 it was 42.7 µM (inactive). Further, the GI50 in the test with UACC-62 was 56 µM (inactive).
Turning to `CC1(C)OCC(C2OC(N3O[C@H](CI)C[C@@H]3c3ccccc3)C3OC(C)(C)OC23)O1` (some centres undefined), the GI50 in the test on 786-0, with A549, in the test with EKVX, in the test with HCC 2998, in the test on HOP-92 and with Hs-578T was > 100 µM (inactive) each time. The GI50 in the test on IGROV-1 was > 100 µM (inactive); in the test with NCI-H23, > 100 µM (inactive); in the test with NCI-H460 it was 56.1 µM (inactive); in the test on OVCAR-3 it was > 100 µM (inactive); in the test on OVCAR-4, > 100 µM (inactive); in the test on PC-3 it was 34 µM (inactive). Also, the GI50 in the test on SF-539, in the test on SNB-19, with SNB-75, in the test with SW-620, in the test with U-251 and with UACC-62 was > 100 µM (inactive) throughout.
Turning to `CC1Oc2cc3c(-c4c(O)cc(O)c5c(O)c6c(cc45)OC(C)C(C)C6=O)c(O)cc(O)c3c(O)c2C(=O)C1C` (centres undefined), the GI50 with 786-0 is 0.102 µM (active); with A549, 0.0252 µM (active); with EKVX it was 0.116 µM (active); in the test on HCC 2998 it was 0.281 µM (active); in the test on HOP-92, 0.184 µM (active); with Hs-578T it was 0.0439 µM (active). In addition, the GI50 in the test on IGROV-1 is 0.0574 µM (active); in the test on MOLT-4 it was 0.109 µM (active); with NCI-H23 it was 0.122 µM (active); with NCI-H460 it was 0.0259 µM (active); in the test with OVCAR-3, 0.255 µM (active); with OVCAR-4 it was 0.0869 µM (active). For the same compound, the GI50 is 0.0859 µM (active) in the test on OVCAR-8; 0.0546 µM (active) in the test with PC-3; 0.15 µM (active) with SF-539; 0.0832 µM (active) in the test on SNB-19; 0.0675 µM (active) in the test with SNB-75; 0.136 µM (active) in the test on SW-620. For the same compound, the GI50 with U-251 is 0.038 µM (active); in the test with UACC-62, 0.372 µM (active).
For `C=CC[C@H](N=C(SC)SC)C(=O)N1C(=O)N(C)[C@@H](C)[C@H]1c1ccccc1`, the GI50 in the test with 786-0 was 46.6 µM (inactive); in the test with A549 it was 35.3 µM (inactive); with EKVX, 31.3 µM (inactive); with HCC 2998, 27.9 µM (inactive); in the test with HOP-92, 23.3 µM (inactive); in the test on Hs-578T, 21.3 µM (inactive). In addition, the GI50 is 26.4 µM (inactive) with MOLT-4; 39.3 µM (inactive) in the test with NCI-H23; 34.1 µM (inactive) in the test on NCI-H460; 29.4 µM (inactive) with OVCAR-3; 29.9 µM (inactive) with OVCAR-4; 51.1 µM (inactive) in the test with OVCAR-8. Moreover, the GI50 in the test on PC-3 was 33.7 µM (inactive); in the test on SF-539 it was 36.4 µM (inactive); in the test on SNB-19, 58.7 µM (inactive); with SNB-75, 36.4 µM (inactive); in the test with SW-620, 30.1 µM (inactive); with U-251, 40.8 µM (inactive). In the test with UACC-62, the GI50 is 35.1 µM (inactive).
As for `C1CCNCC1.CN(C)c1ccc(/C=C2/NC(=S)NC2=O)cc1`, the GI50 in the test with 786-0 was > 100 µM (inactive); with A549, 46.8 µM (inactive); with EKVX it was 50.4 µM (inactive); in the test with HCC 2998 it was 7.26 µM (inactive); in the test on HOP-92, 61.8 µM (inactive); with Hs-578T it was > 100 µM (inactive). Further, the GI50 with IGROV-1 was 59.6 µM (inactive); in the test on MOLT-4 it was 28.2 µM (inactive); in the test with NCI-H23, 61.5 µM (inactive); with OVCAR-3, 43.9 µM (inactive); in the test with OVCAR-4, > 100 µM (inactive); in the test with OVCAR-8 it was 97.9 µM (inactive). The GI50 in the test on PC-3 was 56.4 µM (inactive); in the test with SF-539, 35.2 µM (inactive); in the test on SNB-19 it was 86.7 µM (inactive); in the test with SNB-75 it was 49.7 µM (inactive); with SW-620, 37.8 µM (inactive); in the test with U-251 it was 73.3 µM (inactive). The GI50 in the test with UACC-62 was 36.8 µM (inactive).
In the case of `CC(C)OC1OC(CO)C(O)CC1n1cc(F)c(=O)[nH]c1=O` (centres undefined), the GI50 in the test with 786-0 was > 100 µM (inactive); in the test with A549, > 100 µM (inactive); with EKVX, > 100 µM (inactive); in the test with HCC 2998, > 100 µM (inactive); in the test with HOP-92, > 100 µM (inactive); in the test on Hs-578T it was 86.3 µM (inactive). In addition, the GI50 in the test on IGROV-1, with NCI-H23, with NCI-H460, in the test with OVCAR-3, in the test on OVCAR-4 and in the test on OVCAR-8 was > 100 µM (inactive) throughout. For the same compound, the GI50 in the test with PC-3 was > 100 µM (inactive); in the test on SF-539, > 100 µM (inactive); in the test with SNB-19, > 100 µM (inactive); with SNB-75, > 100 µM (inactive); in the test on SW-620, 30.9 µM (inactive); in the test on U-251 it was 66.8 µM (inactive). Besides, the GI50 with UACC-62 was > 100 µM (inactive).
For `COc1ccc(/N=N/c2ccc3oc(=O)c(C(=O)Nc4ccccc4C)cc3c2)cc1`, the GI50 in the test on 786-0, in the test with EKVX, in the test on HCC 2998, in the test with HOP-92, in the test with Hs-578T and in the test with IGROV-1 was > 10 µM (inactive) in each case. Also, the GI50 with MOLT-4, with NCI-H23, with NCI-H460, in the test with OVCAR-3, in the test with OVCAR-4 and in the test with OVCAR-8 was > 10 µM (inactive) each time. Moreover, the GI50 is > 10 µM (inactive) in the test with PC-3; > 10 µM (inactive) in the test on SF-539; 4.69 µM (inactive) in the test with SNB-75; > 10 µM (inactive) in the test on SW-620; > 10 µM (inactive) in the test on U-251.
As for `O=C1C=C(NCCc2ccc(O)cc2)C(=O)C=C1NCCc1ccc(O)cc1`, the GI50 is > 100 µM (inactive) in the test with 786-0; > 100 µM (inactive) in the test with A549; > 100 µM (inactive) with EKVX; > 100 µM (inactive) in the test with HCC 2998; 71.1 µM (inactive) in the test on HOP-92; 85.3 µM (inactive) in the test on Hs-578T. In addition, the GI50 in the test on IGROV-1 was > 100 µM (inactive); in the test with MOLT-4, 46.5 µM (inactive); in the test on NCI-H23 it was > 100 µM (inactive); in the test with NCI-H460, > 100 µM (inactive); in the test with OVCAR-3, > 100 µM (inactive); in the test on OVCAR-4, > 100 µM (inactive). The GI50 with OVCAR-8 was 48.8 µM (inactive); with PC-3 it was > 100 µM (inactive); in the test with SNB-19, > 100 µM (inactive); in the test on SNB-75 it was 19.6 µM (inactive); in the test on SW-620, > 100 µM (inactive); with U-251, 32.2 µM (inactive). The GI50 in the test on UACC-62 is > 100 µM (inactive).
As for `CC(=O)Oc1c(N2CCCCC2)c(C(=O)c2ccccc2)c(O)c2ccn(N(C)C)c12`, the GI50 was 17.5 µM (inactive) in the test on 786-0; 12.4 µM (inactive) with A549; 16.1 µM (inactive) in the test on EKVX; 18.5 µM (inactive) with HCC 2998; 23.9 µM (inactive) with HOP-92; 28.8 µM (inactive) with Hs-578T. Besides, the GI50 in the test on MOLT-4 is 0.736 µM (active); with NCI-H23 it was 18.9 µM (inactive); in the test on NCI-H460 it was 21.2 µM (inactive); with OVCAR-3, 19.6 µM (inactive); in the test on OVCAR-4, 24.5 µM (inactive); with OVCAR-8 it was 20.7 µM (inactive). The GI50 with PC-3 was 10.9 µM (inactive); in the test on SF-539, 18.5 µM (inactive); in the test on SNB-19 it was 25.4 µM (inactive); in the test on SNB-75, 13.2 µM (inactive); in the test on SW-620 it was 17.3 µM (inactive); in the test with U-251, 16.7 µM (inactive). Further, the GI50 in the test with UACC-62 was 15 µM (inactive).
